# In patent US6375969B1, “Broadcast carriers for pesticides and their use” (priority 1996, dated 2002):
# Test: Volatile materials test in ventilating oven
# Assay type: physicochemical
# Settings: after 2 hours at 141° F. (=60.5° C.) in a ventilating oven
# Experimental: The moisture content of raw material Celite 500 is 3.7 weight percent. So, the weight of raw material Celite 500 is close to the dry weight of Celite 500. According to the product specifications of Supragil MNS/90, Soprophor S/40-P, and Supragil WP, the moisture contents of these components are no higher than 2 weight percent. Also, samples of chlorpyrifos technical were tested for volatile materials in a ventilating oven. The weight loss after 2 hours at 141° F. (=60.5° C.) was only 0.6 weight percent. […] Therefore, the dry spreadable granular product as manufactured above contains approximately 2.0 weight percent chlorpyrifos.
structure (smiles),measurement,value
"CCOP(=S)(OCC)Oc1nc(Cl)c(Cl)cc1Cl [chlorpyrifos technical, Chlorpyrifos]",weight loss (volatile materials),0.6 weight percent
